Here are results for two molecules from patent US20050250113A1, “Mammalian magnesium/manganese sensing G protein coupled receptor” (The Regents of the University of California, priority 2004, published 2005).

For assay [1], the system named is cells without the receptor. As to the kind of experiment: Activity assay control: cells without the receptor stimulated with magnesium or manganese. To be noted: FIG. 1 right panels. The class given is cell-based, human. The text has this: (§1) Candidate receptors are expressed in human embryonic kidney (HEK) cells containing, e.g., the Gα16-Gαz and/or Gα15 promiscuous G proteins (Offermanns et al., J. Biol. Chem. 270:15175-15180 (1995); Mody et al., Mol. Pharmacol. 57:13-23 (2000)), and assayed for stimulus-evoked changes in intracellular calcium. In this system, receptor activation leads to activation of phospholipase Cβ (PLC-β and release of calcium from internal stores, which can be monitored at the single-cell level using calcium-indicator dyes (Chandrashekar et al., Cell 100:703-711 (2000); Nelson et al., Cell 106:381-390 (2001); Tsien et al., Cell Calcium 6:145-157 (1985)).

Assay [2] deals with T1, R5.24 (Homo sapiens, UniProt Q5T6X5).
T1 construct: expressed in transfected cells; host or cells: human embryonic kidney (HEK) cells containing Gα16-Gαz and/or Gα15 promiscuous G proteins
T1 sequence (Q5T6X5 19-926): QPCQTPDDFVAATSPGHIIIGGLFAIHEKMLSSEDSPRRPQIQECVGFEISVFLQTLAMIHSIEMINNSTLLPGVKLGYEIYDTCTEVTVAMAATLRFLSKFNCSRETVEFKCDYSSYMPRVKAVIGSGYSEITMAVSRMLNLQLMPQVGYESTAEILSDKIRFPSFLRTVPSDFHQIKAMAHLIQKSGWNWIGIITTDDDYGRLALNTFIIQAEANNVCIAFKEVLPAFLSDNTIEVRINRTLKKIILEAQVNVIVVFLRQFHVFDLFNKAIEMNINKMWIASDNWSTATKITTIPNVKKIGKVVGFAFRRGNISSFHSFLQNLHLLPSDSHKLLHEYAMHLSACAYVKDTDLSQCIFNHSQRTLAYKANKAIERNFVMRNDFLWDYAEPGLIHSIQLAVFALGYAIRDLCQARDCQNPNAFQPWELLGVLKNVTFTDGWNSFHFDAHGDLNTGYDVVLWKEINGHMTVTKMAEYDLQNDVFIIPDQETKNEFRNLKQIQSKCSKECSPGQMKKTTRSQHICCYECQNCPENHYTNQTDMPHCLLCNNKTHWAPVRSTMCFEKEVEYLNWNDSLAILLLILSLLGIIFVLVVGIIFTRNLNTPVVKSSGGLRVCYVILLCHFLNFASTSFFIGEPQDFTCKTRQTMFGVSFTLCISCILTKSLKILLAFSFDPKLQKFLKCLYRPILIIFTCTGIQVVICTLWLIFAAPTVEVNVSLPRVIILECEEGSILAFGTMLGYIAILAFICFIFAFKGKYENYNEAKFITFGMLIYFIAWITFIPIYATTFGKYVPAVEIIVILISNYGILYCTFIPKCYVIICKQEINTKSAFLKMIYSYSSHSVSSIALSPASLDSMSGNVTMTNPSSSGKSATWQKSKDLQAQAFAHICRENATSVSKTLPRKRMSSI
As to the kind of experiment: Activity assay for R5.24 receptor: stimulus-evoked changes in intracellular calcium in cells expressing R5.24. The class given is cell-based. The following applies: FIG. 1 middle panels, calcium signal.
Description: as §1
(Calcium assays in cells follow changes in intracellular calcium, usually with a dye or a luminescent sensor.)

For the molecule `[Mg+2]` [magnesium], the “response of cells without the receptor to stimulation” value in assay [1] is recorded as “do not respond”. In addition, in assay [2], the “response of cells expressing R5.24 to stimulation” value is on record as “respond”.
For `[Mn+2]` [manganese], the “response of cells without the receptor to stimulation” value in assay [1] is recorded as “do not respond”. Besides, in assay [2], the “response of cells expressing R5.24 to stimulation” value is reported as “respond”.
